Reference: US6806359B1, “Hormone receptor compositions and methods” (The Salk Institute for Biological Studies, priority 1986, dated 2004)

Assays:
rTR alpha = target: T1, rTR alpha (Rattus norvegicus, UniProt P63059); test: ^125I-T3 binding to in vitro translated rTR alpha (Scatchard and competition); details: excess competitor
T1 construct: made in house; host or cells: rabbit reticulocyte lysate (SP6 transcripts of rbeA12B)
T1 sequence (P63059 1-410 isoform P63059-2): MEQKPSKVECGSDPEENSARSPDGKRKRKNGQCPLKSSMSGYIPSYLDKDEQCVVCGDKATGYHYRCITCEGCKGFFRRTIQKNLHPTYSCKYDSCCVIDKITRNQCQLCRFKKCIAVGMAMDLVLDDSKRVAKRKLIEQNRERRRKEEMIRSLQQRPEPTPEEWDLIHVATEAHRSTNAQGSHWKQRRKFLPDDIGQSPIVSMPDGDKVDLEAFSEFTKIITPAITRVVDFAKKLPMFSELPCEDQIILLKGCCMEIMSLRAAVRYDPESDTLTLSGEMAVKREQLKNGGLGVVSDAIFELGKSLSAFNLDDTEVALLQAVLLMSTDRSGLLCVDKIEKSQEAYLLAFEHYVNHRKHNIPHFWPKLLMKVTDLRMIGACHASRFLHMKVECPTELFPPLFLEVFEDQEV
From the text: In vitro translation and thyroid hormone binding of rTR alpha FIG. 69 rTR alpha was transcribed in vitro and translated in a rabbit reticulocyte lysate. […] Lane 1, no added RNA; lane 2, rbeA12, which contains the entire 5′ untranslated region; lane 3, rbeA12B, which contains only 97 bp of 5′ untranslated sequence. […] Samples from rbeA12B programmed lysates were mixed with increasing concentrations of unlabeled thyroid hormone or analogs to compete with labeled hormone. […] In vitro transcription and translation and hormone binding were performed as described (22, 23).
23. For in vitro transcription, the entire EcoRI insert of rbeA12 was cloned into pGEM1 (Promega Biotec). […] For thyroid hormone binding, transcriptions were performed with SP6 polymerase and 5 to 10 micrograms of rbeA12B linearized with SstI. […] Thyroid hormone binding for both the Scatchard and competition analyses were determined in the same manner, except that unlabeled protein was used for the Scatchard analysis. […] Specific hormone binding was determined by adding a 1000-fold excess of unlabeled hormone and assayed by counting radioactivity eluting in the excluded volume from a Sephadex G-25 fine (Pharmacia) 0.9-by 4.0-cm. column.

hMR = target: T2, hMR (Homo sapiens, UniProt P08235); test: [^3H]aldosterone binding and steroid competition in extracts of pRShMR-transfected COS cells; design: expressed in transfected cells; host or cells: COS cells transfected with pRShMR (DEAE-dextran); details: 1-, 10-, or 100-fold molar excess of unlabeled steroid
T2 sequence (P08235 1-984): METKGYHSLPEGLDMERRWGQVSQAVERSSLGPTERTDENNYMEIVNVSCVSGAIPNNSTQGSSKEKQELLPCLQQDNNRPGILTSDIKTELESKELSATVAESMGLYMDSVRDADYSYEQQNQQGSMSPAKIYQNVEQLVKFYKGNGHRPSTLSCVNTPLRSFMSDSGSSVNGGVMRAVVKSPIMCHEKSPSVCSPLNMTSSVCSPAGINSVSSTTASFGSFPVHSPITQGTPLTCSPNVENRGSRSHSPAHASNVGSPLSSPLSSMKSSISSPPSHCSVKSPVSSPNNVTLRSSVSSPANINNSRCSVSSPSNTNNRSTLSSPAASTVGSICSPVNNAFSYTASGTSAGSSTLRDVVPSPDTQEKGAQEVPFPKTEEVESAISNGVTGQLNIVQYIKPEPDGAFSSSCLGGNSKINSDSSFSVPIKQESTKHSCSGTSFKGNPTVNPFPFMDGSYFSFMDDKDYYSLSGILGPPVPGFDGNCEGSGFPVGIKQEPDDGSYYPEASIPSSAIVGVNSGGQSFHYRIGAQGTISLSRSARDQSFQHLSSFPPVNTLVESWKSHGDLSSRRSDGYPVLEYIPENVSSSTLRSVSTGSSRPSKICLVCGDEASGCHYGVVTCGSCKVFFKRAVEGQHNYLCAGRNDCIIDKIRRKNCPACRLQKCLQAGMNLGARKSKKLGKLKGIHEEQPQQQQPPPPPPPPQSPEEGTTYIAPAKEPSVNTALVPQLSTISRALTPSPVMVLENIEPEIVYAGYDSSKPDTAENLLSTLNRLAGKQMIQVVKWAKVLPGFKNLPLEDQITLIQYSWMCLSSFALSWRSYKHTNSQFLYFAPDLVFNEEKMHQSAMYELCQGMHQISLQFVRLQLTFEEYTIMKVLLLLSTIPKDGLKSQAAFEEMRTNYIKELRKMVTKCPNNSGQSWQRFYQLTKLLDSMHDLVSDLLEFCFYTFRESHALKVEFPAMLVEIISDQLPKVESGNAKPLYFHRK
Method: Ligand specificity of the hMR protein was determined by preparing cytosol extracts from COS cells transfected with pRShMR. Two days after transfection, cells were harvested, and hormone binding was measured by a dextran-treated charcoal assay. […] This provided a measure of the relative affinity of each of these steroids for hMR.
Steroid-binding properties of expressed hMR. FIG. 38 Structure of pRShMR, the hMR expression plasmid (41). […] Each point was assayed in triplicate with 100 micrograms of extract protein in a 200-microliter incubation at 0° C. for 2.5 hours. […] The results of two independent trials representative of these competition experiments are shown. Cold competitor was present in 1-, 10-, or 100-fold molar excess. […] Subconfluent COS cells were transfected by the DEAE-dextran method (42) with 10 micrograms of pRShMR per dish. Cells were maintained for 2 days in DMEM (Dulbecco's modification of Eagle's minimum essential medium) with 5 percent charcoal-treated fetal calf serum, then harvested in […] tris-HCl. (pH 7.8), 10 nM NaCl, 1 mM EDTA, 10 mM Na2MoO4, 5 mM dithiothreitol, antipain (5 microgram/ml), leupeptin (5 microgram/ml), and 500 microM phenylmethylsulfonyl fluoride. After centrifugation at 15,000×g for 10 minutes, extracts were adjusted to 100 mM NaCl and 5 percent glycerol before binding. […] After centrifugation at 15,000×g for 2 minutes at 40C, tritium in supernatant was quantified by liquid scintillation spectrophotometry.

SMILES: C[C@]12CC[C@@H]3c4ccc(O)cc4CC[C@H]3[C@@H]1CC[C@@H]2O [oestradiol]
- competition for T3 binding to rTR alpha by excess compound (rTR alpha): no competition
- relative affinity for hMR by competition with 5 nM [^3H]aldosterone (in words) (hMR): competed very poorly
